Like-named read-outs stand apart in the source and are kept apart here. Values belong to the molecule of their own block, whether it stands above or below them.
Molecular target: T1, human TGR5 (h-TGR5) (Homo sapiens, UniProt Q8TDU6)
T1 construct: expressed in transfected cells
T1 sequence (Q8TDU6 1-330): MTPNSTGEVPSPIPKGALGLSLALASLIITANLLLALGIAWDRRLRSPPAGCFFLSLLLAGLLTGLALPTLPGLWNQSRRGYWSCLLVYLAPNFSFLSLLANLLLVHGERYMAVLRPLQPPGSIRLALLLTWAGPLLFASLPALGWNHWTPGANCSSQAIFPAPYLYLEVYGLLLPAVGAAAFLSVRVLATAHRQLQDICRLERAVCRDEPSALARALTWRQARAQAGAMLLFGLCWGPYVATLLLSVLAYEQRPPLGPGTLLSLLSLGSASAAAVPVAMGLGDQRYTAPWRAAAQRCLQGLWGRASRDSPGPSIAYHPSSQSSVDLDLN
Test: TGR5/CRE-Luciferiase Assay (HEK 293 hTGR5/CRE-Luc cells)
Type: cell-based
In short: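 HEK293 cells stably carrying hTGR5 and a CRE-luciferase reporter were exposed to serially diluted compounds (diluted in DMEM with 5% DMSO) for 6 h. Cells were then lysed in luciferase buffer, luminescence was read, and EC50 values were derived from dose-response curves.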

[1] = h-TGR5 CRE-Luc EC50, Table 1, read-out: CRE-Luc (EC50)
[2] = HEK 293 hTGR5/CRE-Luc cells, 6 hours incubation, luciferase activity, Table 2, read-out: h-TGR5CRE-Luc EC50 (CRE-Luc)

Structure (SMILES): CN1CCN(c2ccc(CSc3ncc(C(C)(C)c4ccc(Cl)c(Cl)c4)n3-c3ccc(F)cc3)cc2F)CC1 [1-{4-[({5-[1-(3,4-dichlorophenyl)-1-methylethyl]-1-(4-fluorophenyl)-1H-imidazol-2-yl}thio)methyl]-2-fluorophenyl}-4-methylpiperazine]
EC50 [1]: 100 to 1000 nM

Structure (SMILES): COc1ccc(C(C)(C)c2cnc(CNc3ccc(F)c(Cl)c3)n2-c2ccc(F)cc2)cc1OC [N-{[5-{1-[3,4-bis(methyloxy)phenyl]-1-methylethyl}-1-(4-fluorophenyl)-1H-imidazol-2-yl]methyl}-3-chloro-4-fluoroaniline]
EC50 [1]: 100 to 1000 nM

Structure (SMILES): CC(Oc1ccc(Cl)c(Cl)c1)c1ncc(C(C)(C)c2ccc(Cl)c(Cl)c2)n1-c1ccc(F)cc1 (stereo not shown) [5-[1-(3,4-dichlorophenyl)-1-methylethyl]-2-{1-[(3,4-dichlorophenyl)oxy]ethyl}-1-(4-fluorophenyl)-1H-imidazole]
EC50 [1]: 1000 to 10000 nM

Structure (SMILES): CC(C)(c1ccc(Cl)c(Cl)c1)c1cnc(S(=O)(=O)Cc2ccc(F)c(F)c2)n1-c1ccc(F)cc1 [5-[1-(3,4-dichlorophenyl)-1-methylethyl]-2-{[(3,4-difluorophenyl)methyl]sulfonyl}-1-(4-fluorophenyl)-1H-imidazole]
EC50 [1]: 100 to 1000 nM

Structure (SMILES): CC(C)(c1ccc(Cl)c(Cl)c1)c1cnc(C2=CCN(S(C)(=O)=O)CC2)n1-c1ccc(F)cc1 [4-{5-[1-(3,4-dichlorophenyl)-1-methylethyl]-1-(4-fluorophenyl)-1H-imidazol-2-yl}-1-(methylsulfonyl)-1,2,3,6-tetrahydropyridine]
EC50 [1]: 1000 to 10000 nM

Structure (SMILES): CC(C)(c1ccc(Cl)c(Cl)c1)c1cnc(S(=O)(=O)Cc2c(F)cccc2Cl)n1-c1ccc(F)cc1Cl [1-(2-chloro-4-fluorophenyl)-2-{[(2-chloro-6-fluorophenyl)methyl]sulfonyl}-5-[1-(3,4-dichlorophenyl)-1-methylethyl]-1H-imidazole]
EC50 [1]: 1000 to 10000 nM

Structure (SMILES): Fc1ccc(-n2c(Cc3ccc(Cl)c(F)c3)nnc2SCc2c(F)cccc2Cl)cc1 [Example 38]
EC50 [2]: 100 to 1000 nM

Structure (SMILES): CCN(CC)CCOc1ccc(CSc2ncc(C(C)(C)c3ccc(Cl)c(Cl)c3)n2-c2ccc(F)cc2)cc1S(N)(=O)=O [5-[({5-[1-(3,4-dichlorophenyl)-1-methylethyl]-1-(4-fluorophenyl)-1H-imidazol-2-yl}thio)methyl]-2-{[2-(diethylamino)ethyl]oxy}benzenesulfonamide]
EC50 [1]: 100 to 1000 nM

Structure (SMILES): COc1ccc(C(C)(C)c2cnc(C(=O)Nc3ccc(Cl)c(Cl)c3)n2-c2ccc(F)cc2)cc1OC [5-{1-[3,4-bis(methyloxy)phenyl]-1-methylethyl}-N-(3,4-dichlorophenyl)-1-(4-fluorophenyl)-1H-imidazole-2-carboxamide]
EC50 [1]: 1000 to 10000 nM

Structure (SMILES): Fc1ccc(-n2c(Cc3ccc(F)c(Cl)c3)nnc2SCc2c(F)cccc2Cl)cc1 [Example 15]
EC50 [2]: 1000 to 10000 nM

Structure (SMILES): COc1ccc(C(C)(C)c2cnc(SCc3c(F)cc(-c4nnn[nH]4)cc3F)n2-c2ccc(F)cc2)cc1Cl [5-[4-({[5-{1-[3-chloro-4-(methyloxy)phenyl]-1-methylethyl}-1-(4-fluorophenyl)-1H-imidazol-2-yl]thio}methyl)-3,5-difluorophenyl]-1H-tetrazole]
EC50 [1]: < 100 nM

Structure (SMILES): CC(Sc1ccc(F)cc1Cl)c1ncc(C(C)(C)c2ccc(Cl)c(Cl)c2)n1-c1ccc(F)cc1 (stereo not shown) [2-{1-[(2-chloro-4-fluorophenyl)thio]ethyl}-5-[1-(3,4-dichlorophenyl)-1-methylethyl]-1-(4-fluorophenyl)-1H-imidazole]
EC50 [1]: 1000 to 10000 nM

Structure (SMILES): CC(C)(c1ccc(Cl)c(Cl)c1)c1cnc(COc2ccc(C#N)cn2)n1-c1ccc(F)cc1 [6-[({5-[1-(3,4-dichlorophenyl)-1-methylethyl]-1-(4-fluorophenyl)-1H-imidazol-2-yl}methyl)oxy]pyridine-3-carbonitrile]
EC50 [1]: 100 to 1000 nM

Structure (SMILES): CCOC(=O)c1cc(F)c(CSc2nc(C)c(C(C)(C)c3ccc(Cl)c(OC)c3)n2-c2ccc(F)cc2)c(Cl)c1 [ethyl 3-chloro-4-({[5-{1-[4-chloro-3-(methyloxy)phenyl]-1-methylethyl}-1-(4-fluorophenyl)-4-methyl-1H-imidazol-2-yl]thio}methyl)-5-fluorobenzoate]
EC50 [1]: 100 to 1000 nM

Structure (SMILES): CC(C)n1c(C(C)(C)c2ccc(Cl)c(Cl)c2)cnc1SCc1c(F)cccc1Cl [2-{[(2-chloro-6-fluorophenyl)methyl]thio}-5-[1-(3,4-dichlorophenyl)-1-methylethyl]-1-(1-methylethyl)-1H-imidazole]
EC50 [1]: 1000 to 10000 nM

Structure (SMILES): COc1ccc(C(C)(C)c2cnc(SCc3ccc(F)c(C(=O)O)c3)n2-c2ccc(F)cc2)cc1Cl [5-({[5-{1-[3-chloro-4-(methyloxy)phenyl]-1-methylethyl}-1-(4-fluorophenyl)-1H-imidazol-2-yl]thio}methyl)-2-fluorobenzoic acid]
EC50 [1]: 100 to 1000 nM

Structure (SMILES): COc1ccc(C(C)(C)c2cnc(C(=O)N3CCOCC3)n2-c2ccc(F)cc2)cc1OC [4-{[5-{1-[3,4-bis(methyloxy)phenyl]-1-methylethyl}-1-(4-fluorophenyl)-1H-imidazol-2-yl]carbonyl}morpholine]
EC50 [1]: 1000 to 10000 nM

Structure (SMILES): CN1CCN(c2cc(CSc3ncc(C(C)(C)c4ccc(Cl)c(Cl)c4)n3-c3ccc(F)cc3)ccc2F)CC1 [1-{5-[({5-[1-(3,4-dichlorophenyl)-1-methylethyl]-1-(4-fluorophenyl)-1H-imidazol-2-yl}thio)methyl]-2-fluorophenyl}-4-methylpiperazine]
EC50 [1]: 1000 to 10000 nM

Structure (SMILES): CC(C)(c1ccc(Cl)c(Cl)c1)c1cnc(COc2ccc(-c3nn[nH]n3)cc2Cl)n1-c1ccc(F)cc1 [5-{3-chloro-4-[({5-[1-(3,4-dichlorophenyl)-1-methylethyl]-1-(4-fluorophenyl)-1H-imidazol-2-yl}methyl)oxy]phenyl}-2H-tetrazole]
EC50 [1]: 1000 to 10000 nM

Structure (SMILES): CCN(CC)CCOc1cc(C(C)(C)c2cnc(SCc3c(F)cccc3Cl)n2-c2ccc(F)cc2)ccc1Cl [2-[(2-chloro-5-{1-[2-{[(2-chloro-6-fluorophenyl)methyl]thio}-1-(4-fluorophenyl)-1H-imidazol-5-yl]-1-methylethyl}phenyl)oxy]-N,N-diethylethanamine]
EC50 [1]: 100 to 1000 nM

Results, then the molecule that gave them:

EC50 [1]: < 100 nM
Structure (SMILES): CC(C)(c1ccc(Cl)c(Cl)c1)c1cnc(SCc2ccc(Cl)c(C(N)=O)c2)n1-c1ccc(F)cc1 [2-chloro-5-[({5-[1-(3,4-dichlorophenyl)-1-methylethyl]-1-(4-fluorophenyl)-1H-imidazol-2-yl}thio)methyl]benzamide]

EC50 [1]: 100 to 1000 nM
Structure (SMILES): CC(C)(c1ccc(Cl)c(Cl)c1)c1cnc(SCc2ccc(F)cc2Cl)n1-c1ccc(F)c(C(N)=O)c1 [5-(2-{[(2-chloro-4-fluorophenyl)methyl]thio}-5-[1-(3,4-dichlorophenyl)-1-methylethyl]-1H-imidazol-1-yl)-2-fluorobenzamide]

EC50 [1]: 100 to 1000 nM
Structure (SMILES): CC(C)(c1ccc(Cl)c(Cl)c1)c1cnc(SCc2ccc(F)cc2Cl)n1-c1ccc(F)c(F)c1 [2-{[(2-chloro-4-fluorophenyl)methyl]thio}-5-[1-(3,4-dichlorophenyl)-1-methylethyl]-1-(3,4-difluorophenyl)-1H-imidazole]

EC50 [1]: 100 to 1000 nM
Structure (SMILES): CC(C)(O)COc1ccc(C(C)(C)c2cnc(SCc3ccc(F)cc3Cl)n2-c2ccc(F)cc2)cc1Cl [1-[(2-chloro-4-{1-[2-{[(2-chloro-4-fluorophenyl)methyl]thio}-1-(4-fluorophenyl)-1H-imidazol-5-yl]-1-methylethyl}phenyl)oxy]-2-methylpropan-2-ol]

EC50 [1]: 100 to 1000 nM
Structure (SMILES): CC(C)(c1ccc(Cl)c(Cl)c1)c1cnc(SCc2ccc(C(=N)N)cc2Cl)n1-c1ccc(F)cc1 [3-chloro-4-[({5-[1-(3,4-dichlorophenyl)-1-methylethyl]-1-(4-fluorophenyl)-1H-imidazol-2-yl}thio)methyl]benzenecarboximidamide]

EC50 [1]: 100 to 1000 nM
Structure (SMILES): CC(C)(O)CNC(=O)c1cc(CSc2ncc(C(C)(C)c3ccc(Cl)c(Cl)c3)n2-c2ccc(F)cc2)ccc1F [5-[({5-[1-(3,4-dichlorophenyl)-1-methylethyl]-1-(4-fluorophenyl)-1H-imidazol-2-yl}thio)methyl]-2-fluoro-N-(2-hydroxy-2-methylpropyl)benzamide]

EC50 [1]: 100 to 1000 nM
Structure (SMILES): CC(C)(c1ccc(Cl)c(Cl)c1)c1cnc(SCc2ccc(F)cc2C(=O)O)n1-c1ccc(F)cc1 [2-[({5-[1-(3,4-dichlorophenyl)-1-methylethyl]-1-(4-fluorophenyl)-1H-imidazol-2-yl}thio)methyl]-5-fluorobenzoic acid]

EC50 [1]: < 100 nM
Structure (SMILES): CC(C)(c1ccc(Cl)c(Cl)c1)c1cnc(SCc2cc(C#N)ccc2Cl)n1-c1ccc(F)cc1 [4-chloro-3-[({5-[1-(3,4-dichlorophenyl)-1-methylethyl]-1-(4-fluorophenyl)-1H-imidazol-2-yl}thio)methyl]benzonitrile]

EC50 [1]: 100 to 1000 nM
Structure (SMILES): CC(C)(c1ccc(Cl)c(Cl)c1)c1cnc(SCc2ccc(C#N)cc2Cl)n1-c1ccc(F)cc1 [3-chloro-4-[({5-[1-(3,4-dichlorophenyl)-1-methylethyl]-1-(4-fluorophenyl)-1H-imidazol-2-yl}thio)methyl]benzonitrile]

EC50 [1]: 100 to 1000 nM
Structure (SMILES): CC(C)(C(=O)O)c1ccc(CSc2ncc(C(C)(C)c3ccc(Cl)c(Cl)c3)n2-c2ccc(F)cc2)c(F)c1 [2-{4-[({5-[1-(3,4-dichlorophenyl)-1-methylethyl]-1-(4-fluorophenyl)-1H-imidazol-2-yl}thio)methyl]-3-fluorophenyl}-2-methylpropanoic acid]

EC50 [1]: 100 to 1000 nM
Structure (SMILES): CC(C)(c1ccc(Cl)c(Cl)c1)c1cnc(SCc2ccc(S(N)(=O)=O)c(F)c2)n1-c1ccc(F)cc1 [4-[({5-[1-(3,4-dichlorophenyl)-1-methylethyl]-1-(4-fluorophenyl)-1H-imidazol-2-yl}thio)methyl}-2-fluorobenzenesulfonamide]

— patent US8785488B2 (Exelixis Patent Company LLC, priority 2009, dated 2014)
